# From patent US11932658B2 (BRISTOL-MYERS SQUIBB COMPANY, priority 2016, dated 2024)
# Biological target: T1, PAR4 (Homo sapiens, UniProt Q96RI0)
# T1 construct: expressed in transfected cells; host or cells: HEK293 PAR4 Clone 1.2A (BMS Arctic ID 383940)
# T1 sequence (Q96RI0 18-385): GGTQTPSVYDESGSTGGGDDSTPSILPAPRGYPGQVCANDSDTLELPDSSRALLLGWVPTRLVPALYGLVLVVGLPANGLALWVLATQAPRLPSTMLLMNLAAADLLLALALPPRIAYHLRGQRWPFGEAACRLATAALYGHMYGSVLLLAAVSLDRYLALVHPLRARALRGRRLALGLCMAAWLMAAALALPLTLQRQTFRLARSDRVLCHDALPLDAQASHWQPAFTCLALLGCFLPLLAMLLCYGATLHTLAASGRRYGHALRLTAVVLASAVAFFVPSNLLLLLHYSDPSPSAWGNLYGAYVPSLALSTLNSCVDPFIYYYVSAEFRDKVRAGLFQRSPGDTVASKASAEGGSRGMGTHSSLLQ
# Assay: PAR4 FLIPR assay (antagonism of agonist peptide-induced calcium mobilization)
# Type: cell-based
# Procedure, shortened: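 Antagonism was taken as block of calcium mobilization evoked by the agonist peptide H-Ala-Phe(4-F)-Pro-Gly-Trp-Leu-Val-Lys-Asn-[…]-NH2, added after 30 min room-temperature compound preincubation in dye-loaded PAR4-transfected HEK293 cells (endogenous PAR1). Fluorescence was read on FDSS, with compound addition alone used as the agonist counter-screen; values come from 11-point concentration-response curves.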
row,Compound,IC50 [nM]
1,"COC(=O)NC[C@H]1Cc2c(c(F)cc3nc(-c4cc(C)cc5nc(OC)cnc45)sc23)O1 [Example 218, (R)-methyl ((5-fluoro-2-(2-methoxy-7-methylquinoxalin-5-yl)-7,8-dihydrobenzofuro[5,4-d]thiazol-7-yl)methyl)carbamate]",15
2,"COc1cnc2c(-c3nc4cc(F)c5c(c4s3)C[C@H](CNC(C)=O)O5)cc(C)cc2n1 [Example 219, (R)-N-((5-fluoro-2-(2-methoxy-7-methylquinoxalin-5-yl)-7,8-dihydrobenzofuro[5,4-d]thiazol-7-yl)methyl)acetamide]",180
3,"COc1cnc2c(-c3nc4cc(F)c5c(c4s3)C[C@H](CNC(=O)Oc3ccccc3)O5)cc(C)cc2n1 [Example 220, (R)-phenyl ((5-fluoro-2-(2-methoxy-7-methylquinoxalin-5-yl)-7,8-dihydrobenzofuro[5,4-d]thiazol-7-yl)methyl)carbamate]",38
4,"COc1cnc2c(-c3nc4cc(F)c5c(c4s3)C[C@H](CNC(=O)OCc3ccccc3)O5)cc(C)cc2n1 [Example 221, (R)-benzyl ((5-fluoro-2-(2-methoxy-7-methylquinoxalin-5-yl)-7,8-dihydrobenzofuro[5,4-d]thiazol-7-yl)methyl)carbamate]",5.9
5,"COc1cnc2c(-c3nc4cc(F)c5c(c4s3)C[C@H](CNC(=O)C(F)(F)F)O5)cc(C)cc2n1 [Example 222, (R)-2,2,2-trifluoro-N-((5-fluoro-2-(2-methoxy-7-methylquinoxalin-5-yl)-7,8-dihydrobenzofuro[5,4-d]thiazol-7-yl)methyl)acetamide]",> 500
6,"COc1cnc2c(-c3nc4cc(F)c5c(c4s3)C[C@H](CNC(=O)OC(C)(C)C)O5)cc(C)cc2n1 [Example 223, (R)-tert-butyl ((5-fluoro-2-(2-methoxy-7-methylquinoxalin-5-yl)-7,8-dihydrobenzofuro[5,4-d]thiazol-7-yl)methyl)carbamate]",5.8
7,"COc1cnc2c(-c3nc4ccc5c(c4s3)C[C@@H](CNC(=O)OCC(C)C)O5)cc(C)cc2n1 [Example 224, (S)-isobutyl ((2-(2-methoxy-7-methylquinoxalin-5-yl)-7,8-dihydrobenzofuro [5,4-d]thiazol-7-yl)methyl)carbamate]",4
8,"COc1cnc2c(-c3nc4ccc5c(c4s3)C[C@@H](CNC(=O)OCc3ccccc3)O5)cc(C)cc2n1 [Example 225, (S)-benzyl ((2-(2-methoxy-7-methylquinoxalin-5-yl)-7,8-dihydrobenzofuro[5,4-d]thiazol-7-yl)methy 1)carbamate]",0.6
9,"COC(=O)NC[C@@H]1Cc2c(ccc3nc(-c4cc(C)cc5nc(OC)cnc45)sc23)O1 [Example 226, (S)-methyl ((2-(2-methoxy-7-methylquinoxalin-5-yl)-7,8-dihydrobenzofuro[5,4-d]thiazol-7-yl)methy 1)carbamate]",1.4
10,"COc1cnc2c(-c3nc4ccc5c(c4s3)C[C@@H](CNC(=O)OC3CCOCC3)O5)cc(C)cc2n1 [Example 227, (S)-tetrahydro-2H-pyran-4-yl ((2-(2-methoxy-7-methylquinoxalin-5-yl)-7,8-dihydrobenzofuro[5,4-d]thiazol-7-yl)methy 1)carbamate]",1.3
11,"COc1cnc2c(-c3nc4ccc5c(c4s3)C[C@@H](CNS(C)(=O)=O)O5)cc(C)cc2n1 [Example 228, (S)-N-((2-(2-methoxy-7-methylquinoxalin-5-yl)-7,8-dihydrobenzofuro[5,4-d]thiazol-7-yl)methyl)methanesulfonamide]",190
12,"COc1cnc2c(-c3nc4ccc5c(c4s3)C[C@@H](CNC(=O)OCC3CCOC3)O5)cc(C)cc2n1 (stereo partly drawn) [Example 229, (Tetrahydrofuran-3-yl)methyl (((S)-2-(2-methoxy-7-methylquinoxalin-5-yl)-7,8-dihydrobenzofuro[5,4-d]thiazol-7-yl)methyl)carbamate]",20
13,"COc1cnc2c(-c3nc4ccc5c(c4s3)C[C@@H](CNC(=O)O[C@@H]3CCOC3)O5)cc(C)cc2n1 [Example 230, (R)-tetrahydrofuran-3-yl (((S)-2-(2-methoxy-7-methylquinoxalin-5-yl)-7,8-dihydrobenzofuro[5,4-d]thiazol-7-yl)methyl)carbamate]",6.4
14,"COc1cnc2c(-c3nc4ccc5c(c4s3)C[C@@H](CNC(=O)OCc3cccc(C#N)c3)O5)cc(C)cc2n1 [Example 231, (S)-3-cyanobenzyl ((2-(2-methoxy-7-methylquinoxalin-5-yl)-7,8-dihydrobenzofuro[5,4-d]thiazol-7-yl)methy 1)carbamate]",5.8
15,"COc1cnc2c(-c3nc4ccc5c(c4s3)C[C@@H](CNC(=O)OCc3cccnc3)O5)cc(C)cc2n1 [Example 232, (S)-pyridin-3-ylmethyl ((2-(2-methoxy-7-methylquinoxalin-5-yl)-7,8-dihydrobenzofuro[5,4-d]thiazol-7-yl)methy 1)carbamate]",3.3
16,"COc1cnc2c(-c3nc4ccc5c(c4s3)C[C@@H](CNC(=O)OCc3ccncc3)O5)cc(C)cc2n1 [Example 233, (S)-pyridin-4-ylmethyl ((2-(2-methoxy-7-methylquinoxalin-5-yl)-7,8-dihydrobenzofuro[5,4-d]thiazol-7-yl)methy 1)carbamate]",6.6
17,"COc1cnc2c(-c3nc4ccc5c(c4s3)C[C@@H](CNC(=O)OC3CCCOC3)O5)cc(C)cc2n1 (stereo partly drawn) [Example 234, Tetrahydro-2H-pyran-3-yl (((S)-2-(2-methoxy-7-methylquinoxalin-5-yl)-7,8-dihydrobenzofuro[5,4-d]thiazol-7-yl)methyl)carbamate]",4.3
18,"COc1cnc2c(-c3nc4ccc5c(c4s3)C[C@@H](CNC(=O)OCC3CCCCO3)O5)cc(C)cc2n1 (stereo partly drawn) [Example 235, (Tetrahydro-2H-pyran-2-yl)methyl (((S)-2-(2-methoxy-7-methylquinoxalin-5-yl)-7,8-dihydrobenzofuro[5,4-d]thiazol-7-yl)methyl)carbamate]",4.1
19,"COc1cnc2c(-c3nc4ccc5c(c4s3)C[C@@H](CNC(=O)O[C@H]3CCOC3)O5)cc(C)cc2n1 [Example 236, (S)-tetrahydrofuran-3-yl (((S)-2-(2-methoxy-7-methylquinoxalin-5-yl)-7,8-dihydrobenzofuro[5,4-d]thiazol-7-yl)methyl)carbamate]",2.7
20,"COc1cnc2c(-c3nc4cc(F)c5c(c4s3)C[C@@](C)(COP(=O)(O)O)O5)cc(C)cc2n1 [Example 237, (S)-(5-fluoro-2-(2-methoxy-7-methylquinoxalin-5-yl)-7-methyl-7,8-dihydrobenzofuro[5,4-d]thiazol-7-yl)methyl dihydrogen phosphate]",40
21,"COc1cnc2c(-c3nc4cc(F)c5c(c4s3)[C@H](C)[C@@H](CO)O5)cc(C)cc2n1 [Example 238, ((7S,8S)-5-fluoro-2-(2-methoxy-7-methylquinoxalin-5-yl)-8-methyl-7,8-dihydrobenzofuro[5,4-d]thiazol-7-yl)methanol]",1.3
22,"COc1cnc2c(-c3nc4cc(F)c5c(c4s3)[C@@H](C)[C@H](CO)O5)cc(C)cc2n1 [Example 239, ((7R,8R)-5-fluoro-2-(2-methoxy-7-methylquinoxalin-5-yl)-8-methyl-7,8-dihydrobenzofuro[5,4-d]thiazol-7-yl)methanol]",49
23,"COC(=O)NC[C@]1(C)Cc2c(c(F)cc3nc(-c4cc(C)cc5nc(OC)cnc45)sc23)O1 [Example 240, (S)-methyl ((5-fluoro-2-(2-methoxy-7-methylquinoxalin-5-yl)-7-methyl-7,8-dihydrobenzofuro[5,4-d]thiazol-7-yl)methyl)carbamate]",32
24,"COc1cnc2c(-c3nc4cc(F)c5c(c4s3)C[C@@](C)(CNC(=O)OCC(C)C)O5)cc(C)cc2n1 [Example 241, (S)-isobutyl ((5-fluoro-2-(2-methoxy-7-methylquinoxalin-5-yl)-7-methyl-7,8-dihydrobenzofuro[5,4-d]thiazol-7-yl)methyl)carbamate]",8.6
25,"COc1cnc2c(-c3nc4cc(F)c5c(c4s3)C[C@@](C)(CNC(=O)OC(C)(C)C)O5)cc(C)cc2n1 [Example 242, (S)-tert-butyl ((5-fluoro-2-(2-methoxy-7-methylquinoxalin-5-yl)-7-methyl-7,8-dihydrobenzofuro[5,4-d]thiazol-7-yl)methyl)carbamate]",9.3
26,"COc1cnc2c(-c3nc4ccc5c(c4s3)C[C@@H](CNC(=O)OC(C)(C)C)O5)cc(C)cc2n1 [Example 244, (S)-tert-butyl ((2-(2-methoxy-7-methylquinoxalin-5-yl)-7,8-dihydrobenzofuro[5,4-d]thiazol-7-yl)methyl)carbamate]",100
27,"COc1cnc2c(-c3nc4cc(F)c5c(c4s3)C[C@@H](CNC(=O)OC3CCOCC3)O5)cc(C)cc2n1 [Example 245, (S)-tetrahydro-2H-pyran-4-yl ((5-fluoro-2-(2-methoxy-7-methylquinoxalin-5-yl)-7,8-dihydrobenzofuro[5,4-d]thiazol-7-yl)methyl)carbamate]",24
28,"COc1cnc2c(-c3nc4cc(F)c5c(c4s3)C[C@@H](CNC(=O)OCC(C)C)O5)cc(C)cc2n1 [Example 246, (S)-isobutyl ((5-fluoro-2-(2-methoxy-7-methylquinoxalin-5-yl)-7,8-dihydrobenzofuro[5,4-d]thiazol-7-yl)methyl)carbamate]",5
